Measured values published in PMC8041284, “Tunable Methacrylamides for Covalent Ligand Directed Release Chemistry” (Journal of the American Chemical Society, 2021).

Target: BTK (Homo sapiens, UniProt Q06187)
Assay: biochemical
Settings: read-out: BTK inhibition (%), 0.75 uM BTK, […] probe 3l, 15 min preincubation

BTK, sequence (Q06187 402-655 limits assumed): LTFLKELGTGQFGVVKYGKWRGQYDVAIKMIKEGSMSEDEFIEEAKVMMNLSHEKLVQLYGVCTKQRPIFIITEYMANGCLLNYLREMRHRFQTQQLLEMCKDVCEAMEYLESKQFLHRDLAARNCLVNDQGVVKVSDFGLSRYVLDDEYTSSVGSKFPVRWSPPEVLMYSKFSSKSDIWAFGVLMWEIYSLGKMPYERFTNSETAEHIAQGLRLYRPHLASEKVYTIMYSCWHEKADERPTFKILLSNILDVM

SMILES | inhibition at 10 µM [%]
CNc1nc(Nc2cn(C(C)(C)C#N)nc2C)ncc1C(F)(F)F [PCM-0095754] | 7.6
CC(C)=C1C/C=C(\C)CC/C=C(\C)CC1=O [PCM-0216542] | -4.6
CC1(C)S[C@@H]2[C@H](NC(=O)[C@H](NC(=O)N3CCN(S(C)(=O)=O)C3=O)c3ccccc3)C(=O)N2[C@H]1C(=O)O [PCM-0214758] | -19.5
NC(=O)Cc1cccc(C(=O)c2ccccc2)c1N [PCM-0095009] | 11.7
O=C(c1cn(Cc2cncn2Cc2ccc(Br)cc2)cc1-c1cccc2ccccc12)N1CCOCC1 [PCM-0215301] | -4.6
COc1ccc(-c2oc3c(CC=C(C)C)c(O)cc(O)c3c(=O)c2O[C@@H]2O[C@@H](C)[C@H](O)[C@@H](O)[C@H]2O)cc1 [PCM-0214963] | 6.2
O=S(=O)(O)c1ccc2cc(N=Nc3cc(S(=O)(=O)O)c4cccnc4c3O)ccc2c1 [PCM-0215685] | 54.1
COc1cccc2cc(-c3nc(C4CCC(C(=O)O)CC4)n4ncnc(N)c34)[nH]c12 (centres unmarked) [PCM-0095482] | 28.3
COC(=O)C1=CC[C@@]23CC[C@@H]([C@@](C)(/C=C/C=C(\C)C(=O)O)OC2=O)[C@@]3(OC(C)=O)CC1 [PCM-0216239] | 2.1
CCOC(=O)N[C@@H]1CC[C@@H]2[C@@H](C1)C[C@H]1C(=O)O[C@H](C)[C@H]1[C@H]2/C=C/c1ccc(-c2cccc(F)c2)cn1 [PCM-0215561] | 26.3
O=C(Nc1ccc(Cl)cc1)C1CCCN(C(=O)c2cccc(-c3ccco3)c2)C1 (centres unmarked) [PCM-0102067] | 40.9
Cc1cnc(C(=O)NCCc2ccc(S(=O)(=O)NC(=O)NC3CCCCC3)cc2)cn1 [PCM-0065278] | 13.2
O=C(Nc1ccc(-c2ccnc(Nc3ccc(N4CCOCC4)cc3)n2)cc1)[C@@H]1CCCN1 [PCM-0215262] | 4.8
COc1ccc([C@@H]2CC(=O)c3c(O)cc(O[C@@H]4O[C@H](CO)[C@@H](O)[C@H](O)[C@H]4O[C@@H]4O[C@@H](C)[C@H](O)[C@@H](O)[C@H]4O)cc3O2)cc1O [PCM-0214691] | -10.3
Oc1cc(CNC(=S)/C=C/c2cc(O)c(O)c(Br)c2)cc(O)c1O [PCM-0215728] | 43.4
Cc1cc(O)cc(O[C@@H]2O[C@H](CO)[C@@H](O)[C@H](O)[C@H]2O)c1 [PCM-0214958] | -10.1
COCCNc1cc(NC(=O)N2CCCc3cc(CN4CCN(C)CC4=O)c(C=O)nc32)ncc1C#N [PCM-0216117] | -16.2
Cn1cncc1[C@@](N)(c1ccc(Cl)cc1)c1ccc2c(c1)c(-c1cccc(Cl)c1)cc(=O)n2C [PCM-0095125] | 17.9
CN1C[C@@H]2C[C@H]1CN2c1cc2c(cc1F)c(=O)c(C(=O)O)cn2C1CC1 [PCM-0095547] | 10.2
CCCOC(=O)c1ccc(O)cc1 [PCM-0216242] | -6.2
C[C@H]1c2cccc(O)c2C(O)=C2C(=O)[C@]3(O)C(O)=C(C(N)=O)C(=O)[C@@H](N(C)C)[C@@H]3[C@@H](O)[C@@H]21 [PCM-0215985] | -21.6
CNCC[C@@H](Oc1ccccc1C)c1ccccc1 [PCM-0086150] | 11.7
OC[C@H]1O[C@H](Oc2ccc(O)cc2)[C@H](O)[C@@H](O)[C@@H]1O [PCM-0215968] | 4.6
CCCCc1oc2ccccc2c1C(=O)c1cc(I)c(OCCN(CC)CC)c(I)c1 [PCM-0064561] | 75.5
C=C1CC[C@@H]2[C@](C)(CO)[C@H](O)CC[C@@]2(C)[C@H]1C/C=C1\C=COC1=O [PCM-0215003] | 14
CN1CCN(Cc2ccc(NC(=O)Nc3ccc(Oc4ccnc(N)n4)cc3)cc2C(F)(F)F)CC1 [PCM-0215587] | 31
CCOc1ccccc1O[C@H](c1ccccc1)[C@H]1CNCCO1 [PCM-0095634] | -7
CNc1cccc(CCOc2ccc3c(c2)CN(CC(F)(F)F)C(=O)[C@H](CC(=O)O)C3)n1 [PCM-0215443] | 8.5
CCc1cnn2c(NCc3ccc[n+]([O-])c3)cc(N3CCCC[C@H]3CCO)nc12 [PCM-0095529] | -7.6
